Data: patent US20250127787A1, “METHODS FOR TREATING PERIPHERAL NEUROPATHY” (University of Pittsburgh - Of the Commonwealth System of …, priority 2021, published 2025)
“Also recorded” adds a separate entry of the source.

Experiments:
[1] = molecular target: PNPase (Rattus norvegicus, UniProt P85973); details: single bolus 5 mg/kg
Method: Rats were anesthetized with urethane (Sigma-Aldrich, St. Louis, MO) at 1.2 g/kg. A continuous infusion of 0.9% sterile saline at 25 ul/min was established via a catheter inserted into the jugular vein. A second catheter to the carotid artery was established in order to collect blood samples (200 μl) which were drawn into a 1 ml syringe prefilled with 50 U heparin. Blood samples were centrifuged at 1300 g for 10 minutes and supernatant (plasma) was then quickly frozen on dry ice and stored at −80° C. until assay. Urine samples were collected by a urethral catheter, centrifuged at 416 g for 10 minutes to remove sediment, and stored as above. Baseline blood samples and urine samples were collected followed by a single bolus of 8-aminoguanine (8-AG, 5 mg/kg) administered through the jugular catheter. Blood samples were collected after 15, 30, 60, 120 and 240 minutes. Urine samples were collected at 1, 2, 4 and 6 hours.
Purines in urine were measured by mass spectrometry using multiple reaction monitoring. Blood samples were diluted 1 to 30 with water, and heavy isotope internal standards were added to each sample. Purines were separated by reversed-phase ultra-performance liquid chromatography (Waters UPLC BEH C18 column, 1.7 μm beads; 2.1×150 mm; Milford, MA) and quantified by multiple reaction monitoring using a triple quadrupole mass spectrometer (TSQ Quantum-Ultra; ThermoFisher Scientific, San Jose, CA) with a heated electrospray ionization source. The mobile phase was a linear gradient flow rate (300 uL/min) of 1% acetic acid in water (pH, 3; mobile phase A) and 100% methanol (mobile phase B), and was delivered with a Waters Acquity ultra-performance liquid chromatographic system. The gradient (A/B) settings were: from 0 to 2 minutes, 99.6%/0.4%; from 2 to 3 minutes, to 98.0%/2.0%; from 3 to 4 minutes, to 85.0%/15.0%; from 4 to 6.5 minutes, to 99.6%/0.4%. The instrument parameters were: sample tray temperature, 10° C.; column temperature, 50° C.; ion spray voltage, 4.0 kilovolts; ion transfer tube temperature, 350° C.; source vaporization temperature, 320° C.; Q2 CID gas, argon at 1.5 mTorr; sheath gas, nitrogen at 60 psi; auxillary gas, nitrogen at 35 psi; Q1/Q3 width, 0.7/0.7 units full-width half-maximum; scan width, 0.6 units; scan time, 0.01 seconds. The following transitions (multiple reaction monitoring) were obtained: guanosine (284→152; RT=2.94 min); ^13C10, ^15N5-guanosine (299→162, RT=2.94 min); guanine (152→135; RT=1.48 min); ^13C2, ^15N-guanine (155→138, RT=1.48 min); hypoxanthine (137→119 m/z, RT=1.86 min); ^13C5-hypoxanthine (142→124 m/z, RT=1.86 min); aminoguanine (167→150 m/z, RT=1.50 min); ^13C2^15N-aminoguanine (170→153 m/z, RT=1.50 min).

[2] = tested on: mitofusin 2 (MFN2); experiment: MFN2 expression in CYP-CIPN rat hindpaw epidermis, Western immunoblotting; assay type: in vivo; details: 8-AG 5 mg/kg/day in drinking water
Method: (§1) Animals. This study employed female Harlan Sprague Dawley (HSD) rats (3-4 mo; Envigo, Indianapolis, IN) and were divided into the following groups: 1) Control, 2) Cyclophosphamide (CYP, 75 mg/kg i.p. in saline vehicle; administered on days 0, 3 and 6); 3) 8-aminoguanine (8-AG; 5 mg/kg/day in drinking water; beginning 2 weeks prior to CYP and continuing until sacrifice (day 8)). The dose of 8-AG is based on our preliminary and published experiments. […] The investigation conforms to the Guide for the Care and Use of Laboratory Animals published by the US National Institutes of Health (NIH Publication No. 85-23, revised 1996). […]
(§2) Western immunoblotting: Following the testing paradigms, rats were deeply anesthetized and tissues (e.g., epidermis, peripheral sciatic nerves, spinal cord segments (L3-L5) and dorsal root ganglia (L3-L5) were removed, and a portion of each preparation was homogenized using Lysing Matrix D in a FASTPREP® 24 instrument (MP Biomedicals, Solon, OH) in HBSS [5 mM KCl, 0.3 mM KH2PO4, 138 mM NaCl, 4 mM NaHO3, 0.3 mM Na2HCO3, 0.3 mM Na2HPO4, 5.6 mM glucose and 10 mM Hepes, pH 7.4 containing complete protease inhibitor cocktail (1 tablet/10 ml, Roche, Indianapolis, IN)] and phosphatase inhibitor cocktail (Sigma, 1:100). […] The protein concentrations of the supernatants were determined using the Pierce BCA protein assay (Thermo Scientific, Rockford, IL). […]

[3] = tested on: PGP 9.5; experiment: PGP 9.5 expression in CYP-CIPN rat hindpaw epidermis, Western immunoblotting; assay type: in vivo; details: 8-AG 5 mg/kg/day in drinking water
Method: as §1, §2

PNPase, sequence (P85973 whole entry): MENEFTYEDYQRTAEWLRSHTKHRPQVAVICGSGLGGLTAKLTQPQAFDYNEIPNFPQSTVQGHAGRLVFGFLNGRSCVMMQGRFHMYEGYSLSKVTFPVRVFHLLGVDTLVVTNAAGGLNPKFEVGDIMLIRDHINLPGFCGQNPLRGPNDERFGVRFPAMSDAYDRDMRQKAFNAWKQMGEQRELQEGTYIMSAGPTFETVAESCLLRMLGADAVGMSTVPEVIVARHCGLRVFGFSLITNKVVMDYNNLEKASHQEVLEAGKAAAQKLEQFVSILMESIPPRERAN

Nc1nc2[nH]c(N)nc2c(=O)[nH]1 [8-AG, 8-Aminoguanine]
duration of sustained reduction in the ratio of urine guanosine to urine guanine ([1]; rat urine): > 6 h | duration of sustained reduction in urine levels of hypoxanthine ([1]; rat urine): > 6 h | hypoxanthine levels in the urine ([1]; rat urine): decrease | duration of sustained inhibition of PNPase following a bolus dose ([1]; rat): > 6 h | effect on CYP-induced decrease in MFN2 expression [2]: reversed | effect on CYP-induced decrease in PGP 9.5 expression [3]: restored to control values; also recorded: normalized
